Legend:
Assay in all cases: relative viability (nuclei count vs DMSO), 5 days (fraction); higher = more cells survive
CAP-232 + Bortezomib = compound: C[C@H]([C@@H](C(=O)N)NC(=O)[C@@H]1CSSC[C@@H](C(=O)N[C@H](C(=O)N[C@@H](C(=O)N[C@H](C(=O)N1)CCCCN)CC2=CNC3=CC=CC=C32)CC4=CC=C(C=C4)O)NC(=O)[C@@H](CC5=CC=CC=C5)N)O [CAP-232] + CC(C)C[C@H](NC(=O)[C@H](Cc1ccccc1)NC(=O)c1cnccn1)B(O)O [Bortezomib] (partner 0.002 µM)
Outline: (§1)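 For relative viability, nuclei counts in treated wells were divided by those in vehicle wells. Lung cancer cell lines had been pin-tool dosed in 1536-well plates the day after seeding and cultured for 5 days, then fixed and stained in one step (final 0.05% Triton X-100, 1% formaldehyde, 1 ug/ml Hoechst) and imaged at 4×. Doses were one drug alone or a fixed anchor-drug dose plus five library-drug doses (not always all listed) in √10 steps, and values are duplicate-plate medians.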

CAP-232 + Foretinib = compound: C[C@H]([C@@H](C(=O)N)NC(=O)[C@@H]1CSSC[C@@H](C(=O)N[C@H](C(=O)N[C@@H](C(=O)N[C@H](C(=O)N1)CCCCN)CC2=CNC3=CC=CC=C32)CC4=CC=C(C=C4)O)NC(=O)[C@@H](CC5=CC=CC=C5)N)O [CAP-232] + COc1cc2c(Oc3ccc(NC(=O)C4(C(=O)Nc5ccc(F)cc5)CC4)cc3F)ccnc2cc1OCCCN1CCOCC1 [Foretinib] (partner 0.25 µM)
Outline: as §1

CAP-232 + Olaparib = compound: C[C@H]([C@@H](C(=O)N)NC(=O)[C@@H]1CSSC[C@@H](C(=O)N[C@H](C(=O)N[C@@H](C(=O)N[C@H](C(=O)N1)CCCCN)CC2=CNC3=CC=CC=C32)CC4=CC=C(C=C4)O)NC(=O)[C@@H](CC5=CC=CC=C5)N)O [CAP-232] + O=C(c1cc(Cc2n[nH]c(=O)c3ccccc23)ccc1F)N1CCN(C(=O)C2CC2)CC1 [Olaparib] (partner 8 µM)
Outline: as §1

CAP-232 + Crizotinib = compound: C[C@H]([C@@H](C(=O)N)NC(=O)[C@@H]1CSSC[C@@H](C(=O)N[C@H](C(=O)N[C@@H](C(=O)N[C@H](C(=O)N1)CCCCN)CC2=CNC3=CC=CC=C32)CC4=CC=C(C=C4)O)NC(=O)[C@@H](CC5=CC=CC=C5)N)O [CAP-232] + C[C@@H](Oc1cc(-c2cnn(C3CCNCC3)c2)cnc1N)c1c(Cl)ccc(F)c1Cl [Crizotinib] (partner 1 µM)
Outline: as §1

CAP-232 + Navitoclax = compound: C[C@H]([C@@H](C(=O)N)NC(=O)[C@@H]1CSSC[C@@H](C(=O)N[C@H](C(=O)N[C@@H](C(=O)N[C@H](C(=O)N1)CCCCN)CC2=CNC3=CC=CC=C32)CC4=CC=C(C=C4)O)NC(=O)[C@@H](CC5=CC=CC=C5)N)O [CAP-232] + CC1(C)CCC(c2ccc(Cl)cc2)=C(CN2CCN(c3ccc(C(=O)NS(=O)(=O)c4ccc(N[C@H](CCN5CCOCC5)CSc5ccccc5)c(S(=O)(=O)C(F)(F)F)c4)cc3)CC2)C1 [Navitoclax] (partner 0.5 µM)
Outline: as §1

CAP-232 + Alpelisib = compound: C[C@H]([C@@H](C(=O)N)NC(=O)[C@@H]1CSSC[C@@H](C(=O)N[C@H](C(=O)N[C@@H](C(=O)N[C@H](C(=O)N1)CCCCN)CC2=CNC3=CC=CC=C32)CC4=CC=C(C=C4)O)NC(=O)[C@@H](CC5=CC=CC=C5)N)O [CAP-232] + Cc1nc(NC(=O)N2CCC[C@H]2C(N)=O)sc1-c1ccnc(C(C)(C)C(F)(F)F)c1 [Alpelisib] (partner 2 µM)
Outline: as §1

CAP-232 + Pictilisib = compound: C[C@H]([C@@H](C(=O)N)NC(=O)[C@@H]1CSSC[C@@H](C(=O)N[C@H](C(=O)N[C@@H](C(=O)N[C@H](C(=O)N1)CCCCN)CC2=CNC3=CC=CC=C32)CC4=CC=C(C=C4)O)NC(=O)[C@@H](CC5=CC=CC=C5)N)O [CAP-232] + CS(=O)(=O)N1CCN(Cc2cc3nc(-c4cccc5[nH]ncc45)nc(N4CCOCC4)c3s2)CC1 [Pictilisib] (partner 1 µM)
Outline: as §1

CAP-232 + Lapatinib = compound: C[C@H]([C@@H](C(=O)N)NC(=O)[C@@H]1CSSC[C@@H](C(=O)N[C@H](C(=O)N[C@@H](C(=O)N[C@H](C(=O)N1)CCCCN)CC2=CNC3=CC=CC=C32)CC4=CC=C(C=C4)O)NC(=O)[C@@H](CC5=CC=CC=C5)N)O [CAP-232] + CS(=O)(=O)CCNCc1ccc(-c2ccc3ncnc(Nc4ccc(OCc5cccc(F)c5)c(Cl)c4)c3c2)o1 [Lapatinib] (partner 2 µM)
Outline: as §1

CAP-232 + Linsitinib = compound: C[C@H]([C@@H](C(=O)N)NC(=O)[C@@H]1CSSC[C@@H](C(=O)N[C@H](C(=O)N[C@@H](C(=O)N[C@H](C(=O)N1)CCCCN)CC2=CNC3=CC=CC=C32)CC4=CC=C(C=C4)O)NC(=O)[C@@H](CC5=CC=CC=C5)N)O [CAP-232] + C[C@]1(O)C[C@@H](c2nc(-c3ccc4ccc(-c5ccccc5)nc4c3)c3c(N)nccn32)C1 [Linsitinib] (partner 1 µM)
Outline: as §1

CAP-232 = compound: C[C@H]([C@@H](C(=O)N)NC(=O)[C@@H]1CSSC[C@@H](C(=O)N[C@H](C(=O)N[C@@H](C(=O)N[C@H](C(=O)N1)CCCCN)CC2=CNC3=CC=CC=C32)CC4=CC=C(C=C4)O)NC(=O)[C@@H](CC5=CC=CC=C5)N)O [CAP-232]
Outline: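 A plate was accepted only when its control CV was below 25% and the cells had doubled at least once. Viability is defined from nuclear counts as treated wells divided by vehicle wells, with the median taken across plates. That median covers lung cancer cell lines grown in 1536-well plates, dosed by pinning at five √10-spaced library-drug concentrations, and counted in MetaXpress from 4× Hoechst images after 5 days.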

| Cell Line | relative viability (CAP-232 + Bortezomib; first compound 0.4 µM) | relative viability (CAP-232 + Bortezomib; first compound 1.265 µM) | relative viability (CAP-232 + Bortezomib; first compound 4 µM) | relative viability (CAP-232 + Bortezomib; first compound 12.65 µM) | relative viability (CAP-232 + Foretinib; first compound 0.4 µM) | relative viability (CAP-232 + Foretinib; first compound 1.265 µM) | relative viability (CAP-232 + Foretinib; first compound 4 µM) | relative viability (CAP-232 + Foretinib; first compound 12.65 µM) | relative viability (CAP-232 + Olaparib; first compound 0.4 µM) | relative viability (CAP-232 + Olaparib; first compound 1.265 µM) | relative viability (CAP-232 + Olaparib; first compound 4 µM) | relative viability (CAP-232 + Olaparib; first compound 12.65 µM) | relative viability (CAP-232 + Crizotinib; first compound 0.4 µM) | relative viability (CAP-232 + Crizotinib; first compound 1.265 µM) | relative viability (CAP-232 + Crizotinib; first compound 4 µM) | relative viability (CAP-232 + Crizotinib; first compound 12.65 µM) | relative viability (CAP-232 + Navitoclax; first compound 0.4 µM) | relative viability (CAP-232 + Navitoclax; first compound 1.265 µM) | relative viability (CAP-232 + Navitoclax; first compound 4 µM) | relative viability (CAP-232 + Navitoclax; first compound 12.65 µM) | relative viability (CAP-232 + Alpelisib; first compound 0.4 µM) | relative viability (CAP-232 + Alpelisib; first compound 1.265 µM) | relative viability (CAP-232 + Alpelisib; first compound 4 µM) | relative viability (CAP-232 + Alpelisib; first compound 12.65 µM) | relative viability (CAP-232 + Pictilisib; first compound 0.4 µM) | relative viability (CAP-232 + Pictilisib; first compound 1.265 µM) | relative viability (CAP-232 + Pictilisib; first compound 4 µM) | relative viability (CAP-232 + Pictilisib; first compound 12.65 µM) | relative viability (CAP-232 + Lapatinib; first compound 0.4 µM) | relative viability (CAP-232 + Lapatinib; first compound 1.265 µM) | relative viability (CAP-232 + Lapatinib; first compound 4 µM) | relative viability (CAP-232 + Lapatinib; first compound 12.65 µM) | relative viability (CAP-232 + Linsitinib; first compound 0.4 µM) | relative viability (CAP-232 + Linsitinib; first compound 1.265 µM) | relative viability (CAP-232 + Linsitinib; first compound 4 µM) | relative viability (CAP-232 + Linsitinib; first compound 12.65 µM) | relative viability (CAP-232; 0.4 µM) | relative viability (CAP-232; 1.265 µM) | relative viability (CAP-232; 4 µM) | relative viability (CAP-232; 12.65 µM) |
| --- | --- | --- | --- | --- | --- | --- | --- | --- | --- | --- | --- | --- | --- | --- | --- | --- | --- | --- | --- | --- | --- | --- | --- | --- | --- | --- | --- | --- | --- | --- | --- | --- | --- | --- | --- | --- | --- | --- | --- | --- |
| EBC-1 | 0.512 | 0.497 | 0.567 | 0.475 | 0.0884 | 0.129 | 0.101 | 0.0802 | 0.773 | 0.686 | 0.698 | 0.662 | 0.194 | 0.169 | 0.178 | 0.11 | 0.315 | 0.328 | 0.363 | 0.304 | 0.876 | 0.819 | 0.846 | 0.76 | 0.363 | 0.314 | 0.391 | 0.286 | 0.181 | 0.228 | 0.194 | 0.159 | 1.04 | 0.944 | 0.904 | 0.926 | 1.05 | 0.974 | 1.13 | 0.927 |
| NCI-H1299 | 1.02 | 1.02 | 1.06 | 1.01 | 1.09 | 1.06 | 1.08 | 1.05 | 0.942 | 1.01 | 0.977 | 0.934 | 0.955 | 0.952 | 0.941 | 1.02 | 1.04 | 0.991 | 1.1 | 1.1 | 1.04 | 1.05 | 1.03 | 1.08 | 0.747 | 0.746 | 0.626 | 0.589 | 1.03 | 0.963 | 0.908 | 0.96 | 1.15 | 0.92 | 1.06 | 1.09 | 1.03 | 1.01 | 1.04 | 1.02 |

— the supplement of paper PMC10307832
